Results on 11 compounds are retold here after paper PMC9414972, “α-Glucosidase and α-Amylase Inhibitory Potentials of Quinoline–1,3,4-oxadiazole Conjugates Bearing 1,2,3-Triazole with Antioxidant Activity, Kinetic Studies, and Computational Validation” (Pharmaceuticals, 2022).

Series [1] is described as follows: Ferric reducing antioxidant power (FRAP). The conditions noted are these: ferric reducing antioxidant power. How it is done: FRAP is a ferric (Fe^3+) to ferrous (Fe^2+) ions reduction assay that measures a compound’s electron-donating capacity, i.e., the antioxidant’s reducing power.
The mixture was incubated at 50 °C for 20 min, followed by acidification with 100 μL trichloroacetic acid (10%). After centrifugation at 3500 rpm for 10 min, 200 μL of the supernatant was transferred into another test tube containing 200 μL of distilled water and 0.8 mL of FeCl3 (0.1%). Finally, the absorbance was read at 700 nm, and the total reductive antioxidant power was calculated thus: Ferric reducing antioxidant power (%)=Absorbance of compound/Absorbance of 500µM gallic acid×100

Series [2] deals with T1, α-glucosidase (Saccharomyces cerevisiae, UniProt P38158).
T1 construct: purchased Merck
Nature of the series: Mode of α-glucosidase inhibition (enzyme kinetics, Lineweaver–Burk). Particulars: Lineweaver–Burk plots; inhibitor 0, 75, 150, 300 µM; pNPG. The series is classed as biochemical. The source says:
Understanding a drug’s mode of inhibiting its target is crucial to improve the drug’s activity profile and target specificity. Although orthosteric inhibition, in which the ligand binds at the target’s active site, dominates among currently available drugs, allosteric inhibitors (i.e., drugs binding at regions […] the active site) are desirable due to their reduced vulnerability to active site mutation or to displacement through native substrate overload at the active site. Accordingly, the mode of α-glucosidase inhibition was investigated for promising compounds 4b, 4i, 4j, 4k, 4l, 12k, and 12m, using a time-dependent para-nitrophenyl-[…] (pNPG) assay; the results are presented as Lineweaver–Burk plots (Figure 4). […] Conceivably, this can result in decreased systemic glucose concentration thus alleviating postprandial hyperglycemia and its associated complications.
The mode of inhibition of α-glucosidase of the 4b, 4i, 4j, 4k, 4l, 12k, and 12m compounds was determined using the method described by Kazeem et al. 2013, with modifications. Briefly, 50 µL of the 4b, 4i, 4j, 4k, 4l, 12k, and 12m compounds at (0 µM, 75 µM, 150 µM and 300 µM) concentrations were preincubated with 100 µL of α-glucosidase solution for 10 min at 25 °C in one set of tubes. In another set of tubes, α-glucosidase was preincubated with 50 µL of phosphate buffer (pH 6.9). 25 µL of pNPG at increasing concentrations (0.125–4.0 mg/mL) was added to both sets of solution to start the reaction. Immediately, the absorbance of the resulting solution was monitored for 2 min in a spectrophotometer at 405 nm. The amount of 4-nitrophenol released was determined from a 4-nitrophenol standard curve and then converted to reaction velocities.

Series [3] is described as follows: Nitric oxide (NO) scavenging activity. Particulars: nitric oxide radical scavenging, 37 °C, 2 h. How it is done:
The screening of the present compound series for NO radical scavenging activity (Table 2) identified excellent NO scavengers.
The antioxidant capacity of the compounds to scavenge nitric oxide radicals was determined using a modified version of the protocol by Kurian et al.. Briefly, 250 μL of sodium nitroprusside (10 mM) prepared in sodium phosphate buffer (pH 7.4) was added to 500 μL of the compound solution (62.5–500 μM) or distilled water (control). The resulting solution was incubated at 37 °C for 2 h. Then, 250 μL of Griess reagent was added to the reaction mixture before the absorbance was measured at 546 nm. The nitric oxide scavenging activity of the compounds was calculated with the formula: Nitric oxide scavenging (%)=1−Absorbance of compound/Absorbance of control×100

The target of series [4] is T2, porcine pancreatic amylase (Sus scrofa, UniProt P00690).
T2 construct: purchased Merck
T2 sequence (P00690 16-511): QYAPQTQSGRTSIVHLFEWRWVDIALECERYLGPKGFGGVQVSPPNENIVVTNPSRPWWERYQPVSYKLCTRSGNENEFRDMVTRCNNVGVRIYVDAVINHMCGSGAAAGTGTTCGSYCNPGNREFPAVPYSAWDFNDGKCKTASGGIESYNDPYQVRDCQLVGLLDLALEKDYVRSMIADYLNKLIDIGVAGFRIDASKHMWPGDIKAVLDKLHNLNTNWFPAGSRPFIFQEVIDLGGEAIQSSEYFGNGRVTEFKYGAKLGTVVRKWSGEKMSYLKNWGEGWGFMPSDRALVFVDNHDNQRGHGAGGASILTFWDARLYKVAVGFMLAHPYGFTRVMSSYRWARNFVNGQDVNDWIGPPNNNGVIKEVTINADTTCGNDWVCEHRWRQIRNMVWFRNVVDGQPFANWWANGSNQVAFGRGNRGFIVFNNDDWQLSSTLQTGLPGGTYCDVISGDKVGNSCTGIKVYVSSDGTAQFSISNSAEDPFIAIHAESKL
The series is described as follows: α-Amylase inhibitory activity (starch/DNS). The series is classed as biochemical. The conditions noted are these: porcine pancreatic amylase, starch, pH 6.9, 25 °C; read-out: IC50 α-Amylase. How it is done: α-Amylase inhibitory activity was determined according to Ibitoye et al. with slight modifications. […] The reaction in the mixture was terminated with a 1 mL dinitrosalicylate reagent before boiling for 10 min. The cooled mixture was diluted with 5 mL distilled water, and the absorbance was read at 540 nm. The inhibitory activity was calculated using the formula below: % Inhibition=1−Absorbance of compound/Absorbance of control×100

The nature of series [5]: DPPH radical scavenging activity. The conditions noted are these: DPPH radical scavenging, 30 min, 25 °C. How it is done: The DPPH assay is used conventionally to quantify a compound’s ability to trap free radicals.
The compounds were evaluated for their ability to scavenge stable DPPH radicals, using a modification of the method by Turkoglu et al..
For orientation: The DPPH test is a chemical assay of radical scavenging.

Series [6] addresses T1, α-glucosidase. The series is described as follows: biochemical. The conditions noted are these: pNPG substrate, pH 6.8, 37 °C; read-out: IC50 α-Glucosidase. How it is done:
The α-glucosidase inhibitory activity was evaluated using a previous method with slight modifications.

For series [7], the target named is T1, α-glucosidase. Set-up: method as in ref 22 (Taha et al.). The conditions noted are these: ref 22 (Taha et al.), cited from earlier work.
For series [8], the target named is T1, α-glucosidase. Set-up: method as in ref 28 (Asemanipoor et al.). Particulars: ref 28 (Asemanipoor et al.); read-out: α-glucosidase inhibition IC50; cited from earlier work.
The target in series [9] is T1, α-glucosidase. Set-up: method as in ref 23 (Izgi et al.). The conditions noted are these: ref 23 (Izgi et al.); read-out: α-glucosidase inhibition IC50; cited from earlier work.

Where two headings read alike, the source gives them in different places.

The term IC50 denotes the concentration needed to halve the response being measured. The melting point is the temperature of the solid-liquid transition.

T1 sequence (P38158 whole entry): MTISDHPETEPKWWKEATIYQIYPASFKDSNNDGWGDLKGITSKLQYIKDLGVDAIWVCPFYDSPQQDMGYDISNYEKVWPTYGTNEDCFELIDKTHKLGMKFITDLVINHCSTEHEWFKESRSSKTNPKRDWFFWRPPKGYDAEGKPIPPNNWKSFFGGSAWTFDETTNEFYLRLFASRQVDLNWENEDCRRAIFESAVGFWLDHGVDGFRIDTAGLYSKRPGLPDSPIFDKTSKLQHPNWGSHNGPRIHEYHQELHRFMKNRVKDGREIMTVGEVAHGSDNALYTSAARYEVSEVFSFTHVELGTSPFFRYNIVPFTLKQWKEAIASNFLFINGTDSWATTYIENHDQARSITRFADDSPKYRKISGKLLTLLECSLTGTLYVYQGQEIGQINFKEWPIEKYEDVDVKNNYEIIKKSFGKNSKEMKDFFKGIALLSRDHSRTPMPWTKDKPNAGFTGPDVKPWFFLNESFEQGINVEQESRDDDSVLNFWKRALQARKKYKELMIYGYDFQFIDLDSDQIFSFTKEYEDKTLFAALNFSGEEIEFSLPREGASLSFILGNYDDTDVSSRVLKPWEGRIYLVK

Take `CCCSc1nnc(COc2cccc3cccnc23)o1` [4b, 2-(Propylthio)-5-[(quinolin-8-yloxy)methyl]-1,3,4-oxadiazole]: the IC50 was greater than 500 µM in series [1]; greater than 500 µM in series [3]; greater than 500 µM in [4]; 78.2 µM in [5]; 24.9 µM on α-glucosidase [6]. On α-glucosidase [2], the “mode of α-glucosidase inhibition” value is recorded as “non-competitive”.

For `O=C(N/N=C/c1ccc(O)c(O)c1)c1ccc(-c2nnc(-c3ccc4ncccc4c3)o2)cc1` [A], the “fold superior α-glucosidase inhibition compared with acarbose” value on α-glucosidase [7] is given as 15 fold. Besides, the IC50 at α-glucosidase [7] (read-out: α-glucosidase inhibition IC50) was 2.6 µM.

With `c1ccc(-n2cc(CSc3nnc(COc4cccc5cccnc45)o3)nn2)cc1` [12k, 2-{[(1-Phenyl-1H-1,2,3-triazol-4-yl)methyl]thio}-5-[(quinolin-8-yloxy)methyl]-1,3,4-oxadiazole], the melting point lay in the range of 122 to 128 °C. The IC50 in series [1] is greater than 500 µM. At α-glucosidase [2], the “mode of α-glucosidase inhibition” value is “non-competitive”. Moreover, the IC50 in series [3] was greater than 500 µM. In series [4], the IC50 is greater than 500 µM. The IC50 in series [5] was 85.7 µM. The IC50 at α-glucosidase [6] came out at 22.5 µM.

The compound `Clc1ccc(CSc2nnc(COc3cccc4cccnc34)o2)cc1` [4l, 2-[(4-Chlorobenzyl)thio]-5-[(quinolin-8-yloxy)methyl]-1,3,4-oxadiazole] returned a melting point of 101.4 to 104.2 °C. For the same compound, the IC50 in [1] was greater than 500 µM. The “mode of α-glucosidase inhibition” value at α-glucosidase [2] is “non-competitive”. Moreover, the IC50 in series [3] is greater than 500 µM. Moreover, in series [4], the IC50 is greater than 500 µM. In series [5], this compound gave an IC50 of 77.7 µM. The concentration for half-maximal inhibition (IC50) on α-glucosidase [6] came out at 25.2 µM.

`c1ccc(CSc2nnc(COc3cccc4cccnc34)o2)cc1` [4j, 2-(Benzylthio)-5-[(quinolin-8-yloxy)methyl]-1,3,4-oxadiazole]: the melting point was 75.3 to 79.8 °C. For the same compound, the IC50 in [1] is greater than 500 µM. Further, at α-glucosidase [2], the “mode of α-glucosidase inhibition” value is reported as “non-competitive”. Also, the IC50 in series [3] is 399 µM. In addition, the IC50 in series [4] is greater than 500 µM. In series [5], this compound came in with an IC50 of 54.9 µM. Besides, on α-glucosidase [6], the IC50 is 26.7 µM.

The compound `Fc1ccc(-n2cc(CSc3nnc(COc4cccc5cccnc45)o3)nn2)cc1` [12m, 2-{[(1-(4-Fluorophenyl)-1H-1,2,3-triazol-4-yl)methyl]thio}-5-[(quinolin-8-yloxy)methyl]-1,3,4-oxadiazole] had a melting point of 134 to 140 °C. Further, in series [1], the IC50 is greater than 500 µM. The “mode of α-glucosidase inhibition” value on α-glucosidase [2] is on record as “non-competitive”. For the same compound, in series [3], the IC50 was greater than 500 µM. In addition, the IC50 in series [4] was greater than 500 µM. The compound also showed an IC50 in series [5] of 88.7 µM. Also, at α-glucosidase [6], the IC50 was determined as 26.8 µM.

Regarding `Fc1ccc(CSc2nnc(COc3cccc4cccnc34)o2)cc1` [4k, 2-[(4-Fluorobenzyl)thio]-5-[(quinolin-8-yloxy)methyl]-1,3,4-oxadiazole], the melting point fell in the range of 106.9 to 109.4 °C. The compound further yielded a 50% inhibitory concentration (IC50) in series [1] greater than 500 µM. For the same compound, at α-glucosidase [2], the “mode of α-glucosidase inhibition” value was “non-competitive”. For the same compound, in series [3], the IC50 was greater than 500 µM. Besides, the half-inhibitory concentration (IC50) in series [4] was greater than 500 µM. The compound further came in with an IC50 in series [5] of 81.1 µM. Besides, the IC50 at α-glucosidase [6] came out at 23.7 µM.

Consider `CCc1ccc(NC(=O)Cn2cc(COc3ccc(-c4nc5ccccc5[nH]4)cc3)nn2)cc1` [C], for which the IC50 on α-glucosidase [8] was 35 µM.

Turning to `BrCCCCCSc1nnc(COc2cccc3cccnc23)o1` [4i, 2-[(5-Bromopentyl)thio]-5-[(quinolin-8-yloxy)methyl]-1,3,4-oxadiazole], the IC50 in series [1] was 22.9 µM; in series [3] it was 198 µM; in series [4] it was greater than 500 µM; in [5] it was 54.9 µM; on α-glucosidase [6] it was 15.8 µM. Moreover, the “mode of α-glucosidase inhibition” value at α-glucosidase [2] is listed as “non-competitive”.

`Clc1cccc(Cl)c1-n1cc(CSc2nnc(COc3cccc4cccnc34)o2)nn1` [12s, 2-{[(1-(2,6-Dichlorophenyl)-1H-1,2,3-triazol-4-yl)methyl]thio}-5-[(quinolin-8-yloxy)methyl]-1,3,4-oxadiazole] came in with a melting point of 113 to 118 °C. This compound registered an IC50 in series [1] greater than 500 µM. In series [3], this compound returned an IC50 greater than 500 µM. In series [4], the IC50 was greater than 500 µM. The IC50 in series [5] was determined as 84.5 µM. Further, the IC50 on α-glucosidase [6] came to 38.8 µM.

Turning to `c1ccc(-c2nnc(-c3c[nH]c4ncccc34)o2)cc1` [B], the IC50 at α-glucosidase [9] is 400 µM.
